# According to US20230089073A1 (Carmot Therapeutics, Inc., priority 2021, published 2023):
# Molecular target: T1, human GLP-1 receptor (Homo sapiens, UniProt P43220)
# T1 construct: expressed in transfected cells
# Assay: GLP-1R cAMP Assay
# Type: cell-based
# Settings: cAMP accumulation in CHO cells stably overexpressing the human GLP-1 receptor; 30 min treatment; HitHunter cAMP kit; read-out: EC50
# Procedure, shortened: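 Luminescent enzyme-complementation detection of cAMP, read after cell lysis and overnight incubation, with dose-response curve fitting. Stimulation lasted 30 min, using 20-point triplicate dosing on CHO cells (10,000 per well) stably overexpressing human GLP-1R.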
# T1 sequence (P43220 24-463): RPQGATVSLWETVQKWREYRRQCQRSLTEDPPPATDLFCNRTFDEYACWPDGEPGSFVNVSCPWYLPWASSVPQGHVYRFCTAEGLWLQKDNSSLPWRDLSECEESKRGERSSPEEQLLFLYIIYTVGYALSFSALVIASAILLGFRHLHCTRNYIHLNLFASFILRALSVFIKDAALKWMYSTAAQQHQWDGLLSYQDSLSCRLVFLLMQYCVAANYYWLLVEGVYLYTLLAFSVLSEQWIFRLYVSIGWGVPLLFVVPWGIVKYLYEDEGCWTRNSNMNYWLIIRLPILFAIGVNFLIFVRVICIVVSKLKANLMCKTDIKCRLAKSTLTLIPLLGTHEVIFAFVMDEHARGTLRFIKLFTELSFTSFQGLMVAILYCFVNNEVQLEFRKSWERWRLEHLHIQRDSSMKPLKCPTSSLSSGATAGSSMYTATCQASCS
row,Compound,EC50
1,"CCn1cncc1Cn1c(CN2CCC(CF)(Cc3ccnc(COc4ccc(Cl)cc4Cl)c3)CC2)nc2ccc(C(=O)O)cc21 [Example 164, 2-((4-((2-((2,4-Dichlorophenoxy)methyl)pyridin-4-yl)methyl)-4-(fluoromethyl)piperidin-1-yl)methyl)-1-((1-ethyl-1H-imidazol-5-yl)methyl)-1H-benzo[d]imidazole-6-carboxylic acid]",< 50 nM
2,"Cc1ccc(N(C)c2ccc(C)c(C(=O)N3CCN(Cc4nc5ccc(C(=O)O)cc5n4C[C@@H]4CCO4)CC3)c2)c(Cl)c1 [Compound 75, 2-[(4-{5-[(2-chloro-4-methylphenyl)(methyl)amino]-2-methylbenzoyl}piperazin-1-yl)methyl]-1-{[(2S)-oxetan-2-yl]methyl}-1H-1,3-benzodiazole-6-carboxylic acid]",< 50 nM
3,"Cc1ccc(OCc2cccc(CC3CCN(Cc4nc5ccc(C(=O)O)cc5n4C[C@@H]4CCO4)CC3)n2)c(Cl)c1 [Compound 118, 2-{[4-({6-[(2-chloro-4-methylphenoxy)methyl]pyridin-2-yl}methyl)piperidin-1-yl]methyl}-1-{[(2S)-oxetan-2-yl]methyl}-1H-1,3-benzodiazole-6-carboxylic acid]",< 50 nM
4,"CCn1cncc1Cn1c(CN2CCC([C@@H](OC)c3cccc(COc4ccc(Cl)cc4Cl)c3)CC2)nc2ccc(C(=O)O)cc21 (single isomer, unassigned) [Example 204]",50 to 500 nM
5,"O=C(O)c1ccc2nc(CN3CCN(Cc4ccc(COc5ccccc5)o4)CC3)n(C[C@@H]3CCO3)c2c1 [Example 20, (S)-1-(Oxetan-2-ylmethyl)-2-((4-((5-(phenoxymethyl)furan-2-yl)methyl)piperazin-1-yl)methyl)-1H-benzo[d]imidazole-6-carboxylic acid]",> 500 nM
6,"O=C(O)c1ccc2nc(CN3CCN(C(=O)c4ncc(COc5ccc(Cl)cc5Cl)o4)CC3)n(C[C@@H]3CCO3)c2c1 [Compound 113, 2-[(4-{5-[(2,4-dichlorophenoxy)methyl]-1,3-oxazole-2-carbonyl}piperazin-1-yl)methyl]-1-{[(2S)-oxetan-2-yl]methyl}-1H-1,3-benzodiazole-6-carboxylic acid]",> 500 nM
7,N#Cc1ccc(OCc2nccc(OC3CCN(Cc4nc5c(F)cc(C(=O)O)cc5n4CC4(CF)CC4)CC3)n2)c(F)c1 [Compound 314],< 50 nM
8,"Cc1ccc(Oc2cccc(C(=O)N3CCN(Cc4nc5ccc(C(=O)O)cc5n4C[C@@H]4CCO4)CC3)c2)c(C)c1 [Compound 18, 2-({4-[3-(2,4-dimethylphenoxy)benzoyl]piperazin-1-yl}methyl)-1-{[(2S)-oxetan-2-yl]methyl}-1H-1,3-benzodiazole-6-carboxylic acid]",50 to 500 nM
9,"C[C@H]1C[C@H](Oc2cccc(COc3ccc(Cl)cc3F)n2)CCN1Cc1nc2ccc(C(=O)O)cc2n1C[C@@H]1CCO1 [Compound 290, 2-{[(2S,4R)-4-({6-[(4-chloro-2-fluorophenoxy)methyl]pyridin-2-yl}oxy)-2-methylpiperidin-1-yl]methyl}-1-{[(2S)-oxetan-2-yl]methyl}-1H-1,3-benzodiazole-6-carboxylic acid]",< 50 nM
10,"N#Cc1cc(Cl)ccc1OCc1cccc(CC2CCN(Cc3nc4ccc(C(=O)O)cc4n3C[C@H]3CCOC3)CC2)c1 [Compound 158, 2-{[4-({3-[(4-chloro-2-cyanophenoxy)methyl]phenyl}methyl)piperidin-1-yl]methyl}-1-{[(3R)-oxolan-3-yl]methyl}-1H-1,3-benzodiazole-6-carboxylic acid]",< 50 nM
11,"Cc1ccc(OCc2ccc(C(=O)N3CCN(Cc4nc5ccc(C(=O)O)cc5n4C[C@@H]4CCO4)CC3)o2)cc1 [Compound 42, 2-[(4-{5-[(4-methylphenoxy)methyl]furan-2-carbonyl}piperazin-1-yl)methyl]-1-{[(2S)-oxetan-2-yl]methyl}-1H-1,3-benzodiazole-6-carboxylic acid]",> 500 nM
12,"CCn1cncc1Cn1c(CN2CCC(Cc3cncc(COc4ccc(Cl)cc4Cl)c3)CC2)nc2ccc(C(=O)O)cc21 [Compound 139, 2-{[4-({5-[(2,4-dichlorophenoxy)methyl]pyridin-3-yl}methyl)piperidin-1-yl]methyl}-1-[(1-ethyl-1H-imidazol-5-yl)methyl]-1H-1,3-benzodiazole-6-carboxylic acid]",< 50 nM
13,"O=C(O)c1ccc2nc(CN3CCC(Oc4ccnc(COc5ccc(F)cc5Cl)n4)CC3)n(C[C@H]3CCN3C(=O)c3ccon3)c2c1 [Example 483, (R)-2-((4-((2-((2-Chloro-4-fluorophenoxy)methyl)pyrimidin-4-yl)oxy)piperidin-1-yl)methyl)-1-((1-(isoxazole-3-carbonyl)azetidin-2-yl)methyl)-1H-benzo[d]imidazole-6-carboxylic acid]",< 50 nM
14,"O=C(O)c1ccc2nc(CN3CCN(Cc4cc5ccc(-c6ccc(Cl)cc6F)cc5o4)CC3)n(C[C@@H]3CCO3)c2c1 [Compound 28, 2-[(4-{[6-(4-chloro-2-fluorophenyl)-1-benzofuran-2-yl]methyl}piperazin-1-yl)methyl]-1-{[(2S)-oxetan-2-yl]methyl}-1H-1,3-benzodiazole-6-carboxylic acid]",> 500 nM
15,"Cc1cc(C2CC2)ccc1N(C)c1cccc(C(=O)N2CCN(Cc3nc4ccc(C(=O)O)cc4n3C[C@@H]3CCO3)CC2)c1 [Example 115, (S)-2-((4-(3-((4-Cyclopropyl-2-methylphenyl)(methyl)amino)benzoyl)piperazin-1-yl)methyl)-1-(oxetan-2-ylmethyl)-1H-benzo[d]imidazole-6-carboxylic acid]",< 50 nM
16,O=C(O)c1cc(F)c2nc(CN3CCC(Oc4ccnc(COc5ccc(F)cc5Cl)n4)CC3)n(CC3(CF)CC3)c2c1 [Compound 327],< 50 nM
17,"Cc1ccc(Cc2cccc(C(=O)N3CCN(Cc4nc5ccc(C(=O)O)cc5n4C[C@@H]4CCO4)CC3)c2)cc1 [Compound 33, 2-[(4-{3-[(4-methylphenyl)methyl]benzoyl}piperazin-1-yl)methyl]-1-{[(2S)-oxetan-2-yl]methyl}-1H-1,3-benzodiazole-6-carboxylic acid]",> 500 nM
18,"CCn1cncc1Cn1c(CN2CCC(CO)(Cc3ccnc(COc4ccc(Cl)cc4Cl)c3)CC2)nc2ccc(C(=O)O)cc21 [Example 150, 2-((4-((2-((2,4-Dichlorophenoxy)methyl)pyridin-4-yl)methyl)-4-(hydroxymethyl)piperidin-1-yl)methyl)-1-((1-ethyl-1H-imidazol-5-yl)methyl)-1H-benzo[d]imidazole-6-carboxylic acid]",< 50 nM
19,"O=C(O)c1ccc2nc(CN3CCN(C(=O)c4ccc(COc5ccc(Cl)cc5)o4)CC3)n(C[C@@H]3CCO3)c2c1 [Compound 31, 2-[(4-{5-[(4-chlorophenoxy)methyl]furan-2-carbonyl}piperazin-1-yl)methyl]-1-{[(2S)-oxetan-2-yl]methyl}-1H-1,3-benzodiazole-6-carboxylic acid]",> 500 nM

# Now from value to compound:
row,EC50,Compound
1,< 50 nM,"N#Cc1cc(C2CC2)ccc1OCc1nccc(OC2CCN(Cc3nc4ccc(C(=O)O)cc4n3C[C@@H]3CCO3)CC2)n1 [Compound 476, 2-{[4-({2-[(2-cyano-4-cyclopropylphenoxy)methyl]pyrimidin-4-yl}oxy)piperidin-1-yl]methyl}-1-{[(2S)-oxetan-2-yl]methyl}-1H-1,3-benzodiazole-6-carboxylic acid]"
2,< 50 nM,"O=C(O)c1ccc2nc(CN3CCC(Cc4cccc(COc5ccc(C6CC6)cc5Cl)n4)CC3)n(C[C@@H]3CCO3)c2c1 [Example 152, (S)-2-((4-((6-((2-Chloro-4-cyclopropylphenoxy)methyl)pyridin-2-yl)methyl)piperidin-1-yl)methyl)-1-(oxetan-2-ylmethyl)-1H-benzo[d]imidazole-6-carboxylic acid]"
3,< 50 nM,"O=C(O)c1cc(F)c2nc(CN3CCC(Oc4ccnc(COc5ccc(F)cc5F)n4)CC3)n(C[C@@H]3CCO3)c2c1 [Compound 482, 2-{[4-({2-[(2,4-difluorophenoxy)methyl]pyrimidin-4-yl}oxy)piperidin-1-yl]methyl}-4-fluoro-1-{[(2S)-oxetan-2-yl]methyl}-1H-1,3-benzodiazole-6-carboxylic acid]"
4,< 50 nM,O=C(O)c1ccc2nc(CN3CCC(Oc4ccnc(COc5ccc(F)cc5C(F)(F)F)n4)CC3)n(C[C@@H]3CCO3)c2c1 [Compound 342]
5,< 50 nM,O=C(O)c1cc(F)c2nc(CN3CCC(Oc4ccnc(COc5ccc(Cl)cc5Cl)n4)CC3)n(C[C@@H]3CCO3)c2c1 [Compound 305]
6,< 50 nM,"Cc1cc(C(=O)O)cc2c1nc(CN1CCC(Oc3ccnc(COc4ccc(F)cc4C#N)n3)CC1)n2C[C@@H]1CCO1 [Compound 500, 2-{[4-({2-[(2-cyano-4-fluorophenoxy)methyl]pyrimidin-4-yl}oxy)piperidin-1-yl]methyl}-4-methyl-1-{[(2S)-oxetan-2-yl]methyl}-1H-1,3-benzodiazole-6-carboxylic acid]"
7,< 50 nM,"C[C@H]1C[C@@H](Oc2ccnc(COc3ccc(C#N)cc3F)n2)CCN1Cc1nc2ccc(C(=O)O)cc2n1C[C@H]1CCOC1 [Compound 515, 2-{[(2S,4S)-4-({2-[(4-cyano-2-fluorophenoxy)methyl]pyrimidin-4-yl}oxy)-2-methylpiperidin-1-yl]methyl}-1-{[(3R)-oxolan-3-yl]methyl}-1H-1,3-benzodiazole-6-carboxylic acid]"
8,< 50 nM,O=C(O)c1ccc2nc(CN3CCC(Oc4ccnc(COc5ccc(F)cc5C(F)(F)F)c4)CC3)n(C[C@@H]3CCO3)c2c1 [Compound 322]
9,< 50 nM,N#Cc1ccc(OCc2nccc(OC3CCN(Cc4nc5ccc(C(=O)O)nc5n4C[C@@H]4CCO4)CC3)n2)c(F)c1 [Compound 373]
10,< 50 nM,N#Cc1ccc(OCc2nccc(OC3CCN(Cc4nc5ccc(C(=O)O)cc5n4C[C@@H]4CCO4)CC3)n2)c(Cl)c1 [Compound 369]
11,< 50 nM,"C[C@H]1C[C@@H](Oc2ccnc(COc3cc(F)c(F)cc3F)n2)CCN1Cc1nc2ccc(C(=O)O)cc2n1C[C@@H]1CCO1 [Compound 514, 2-{[(2S,4S)-2-methyl-4-({2-[(2,4,5-trifluorophenoxy)methyl]pyrimidin-4-yl}oxy)piperidin-1-yl]methyl}-1-{[(2S)-oxetan-2-yl]methyl}-1H-1,3-benzodiazole-6-carboxylic acid]"
